This note sets out measurements from ChEMBL document CHEMBL1201862, “PubChem BioAssay data set” (2004).

Some test systems named below: MDA-MB-435; TK-10; SK-MEL-2; A498; KM12; UACC-257; SK-OV-3; COLO 205; OVCAR-3; LOX IMVI; CCRF-CEM; RPMI-8226; K562; BT-549; PC-3; Hs-578T; NCI/ADR-RES; SK-MEL-5; DU-145; MOLT-4.
Holding throughout (assay): growth of human tumour cells (NCI), 48 h

Molecules are shown by their SMILES.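 All cell lines were grown in 96-well plates and treated with compound for 48 hours. Abbreviation: GI50, concentration required for 50% inhibition of growth.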 Activity calls are given as the source filed them. Rule as the data show it: active = GI50 up to about 1.1 µM and inactive = higher.

Turning to `O=C(O[C@H](/C=C/c1ccccc1)P1(=O)N(Cc2ccccc2)[C@@H]2CCCC[C@H]2N1Cc1ccccc1)c1ccccc1`, the GI50 is 3.63 µM (inactive) in the experiment on MDA-MB-435; 38.9 µM (inactive) in the experiment on TK-10; 2.27 µM (inactive) in the experiment with SK-MEL-2; 5.57 µM (inactive) in the experiment with A498; 3.24 µM (inactive) in the experiment with KM12; 7.87 µM (inactive) with UACC-257. For the same compound, the GI50 with SK-OV-3 is 5.41 µM (inactive); in the experiment on COLO 205, 2.17 µM (inactive); in the experiment with OVCAR-3, 3.68 µM (inactive); with LOX IMVI, 3.41 µM (inactive); in the experiment on CCRF-CEM, 2.74 µM (inactive); in the experiment with RPMI-8226, 2.33 µM (inactive). Besides, the GI50 in the experiment with K562 is 3.24 µM (inactive); in the experiment with BT-549 it was 4.55 µM (inactive); in the experiment with PC-3, 3.39 µM (inactive); in the experiment with Hs-578T, 6.93 µM (inactive); in the experiment on NCI/ADR-RES, 3.18 µM (inactive); in the experiment on SK-MEL-5 it was 1.86 µM (inactive).

Turning to `O=C(Cc1nc2ccc(C(=O)c3ccccc3)cc2nc1O)C(=O)Nc1ccccc1[N+](=O)[O-]`, the GI50 is 38.9 µM (inactive) in the experiment on MDA-MB-435; 98.9 µM (inactive) with TK-10; 91.2 µM (inactive) in the experiment on SK-MEL-2; > 100 µM (inactive) in the experiment on A498; 24 µM (inactive) with KM12; > 100 µM (inactive) with UACC-257. In addition, the GI50 in the experiment with SK-OV-3 was > 100 µM (inactive); with OVCAR-3, > 100 µM (inactive); with LOX IMVI, 67.9 µM (inactive); in the experiment on CCRF-CEM, 50.9 µM (inactive); in the experiment with RPMI-8226 it was 34.1 µM (inactive); in the experiment with K562, 30.1 µM (inactive). Further, the GI50 with BT-549 was 58.9 µM (inactive); in the experiment with PC-3, 51.1 µM (inactive); in the experiment with Hs-578T, 47.8 µM (inactive); with NCI/ADR-RES it was 45.1 µM (inactive); with SK-MEL-5 it was 46 µM (inactive).

Regarding `CC(=O)OC12c3ccccc3C(c3ccccc31)C1C(=O)N(Nc3ccccc3)C(=O)C12` (stereo not given), the GI50 in the experiment with TK-10, in the experiment on A498, in the experiment with DU-145, in the experiment with KM12, in the experiment with UACC-257 and in the experiment on SK-OV-3 was > 100 µM (inactive) in each case. In addition, the GI50 in the experiment with COLO 205, in the experiment on OVCAR-3, in the experiment with MOLT-4, with LOX IMVI, in the experiment with CCRF-CEM and in the experiment on RPMI-8226 was > 100 µM (inactive) throughout. In addition, the GI50 in the experiment on K562 is > 100 µM (inactive); in the experiment on BT-549 it was > 100 µM (inactive); in the experiment on PC-3, > 100 µM (inactive); with Hs-578T, 23.1 µM (inactive); in the experiment with NCI/ADR-RES it was > 100 µM (inactive); in the experiment on SK-MEL-5, > 100 µM (inactive).

In the case of `O=C(OCC(OC(=O)c1ccccc1)C1CC(C2(O)CCCCC2)C(=O)O1)c1ccccc1` (stereo not given), the GI50 in the experiment on MDA-MB-435 was > 25 µM (inactive); with TK-10 it was > 25 µM (inactive); with SK-MEL-2, > 25 µM (inactive); in the experiment with A498, > 25 µM (inactive); with DU-145, > 25 µM (inactive); with KM12 it was 11 µM (inactive). Moreover, the GI50 in the experiment on UACC-257 was > 25 µM (inactive); in the experiment on SK-OV-3, > 25 µM (inactive); in the experiment with COLO 205, > 25 µM (inactive); in the experiment on OVCAR-3 it was > 25 µM (inactive); with MOLT-4, 6.64 µM (inactive); in the experiment on LOX IMVI, > 25 µM (inactive). For the same compound, the GI50 was 13.4 µM (inactive) in the experiment with CCRF-CEM; > 25 µM (inactive) with RPMI-8226; 15.9 µM (inactive) with K562; 0.478 µM (active) with BT-549; > 25 µM (inactive) with PC-3; > 25 µM (inactive) in the experiment with NCI/ADR-RES. Moreover, the GI50 in the experiment with SK-MEL-5 is > 25 µM (inactive).

For the compound `CCCCCCCCCCCCCCCC(=O)OCC(C[As](=O)(O)O)OC(=O)CCCCCCCCCCCCCCC` (stereo not given), the GI50 in the experiment with MDA-MB-435 is > 100 µM (inactive); in the experiment with TK-10 it was > 66.5 µM (inactive); with SK-MEL-2 it was > 100 µM (inactive); in the experiment with A498 it was > 100 µM (inactive); in the experiment on KM12, > 100 µM (inactive); with UACC-257, > 100 µM (inactive). Moreover, the GI50 was > 58.2 µM (inactive) in the experiment on SK-OV-3; > 100 µM (inactive) in the experiment with COLO 205; > 100 µM (inactive) with OVCAR-3; > 100 µM (inactive) in the experiment with MOLT-4; > 100 µM (inactive) with LOX IMVI; > 100 µM (inactive) with CCRF-CEM. Also, the GI50 is > 100 µM (inactive) in the experiment with RPMI-8226; > 100 µM (inactive) in the experiment with K562; > 100 µM (inactive) in the experiment with BT-549; > 100 µM (inactive) in the experiment with PC-3; 58.5 µM (inactive) with Hs-578T; > 100 µM (inactive) with NCI/ADR-RES. The GI50 in the experiment on SK-MEL-5 is > 100 µM (inactive).

On to `CC(C)(C)OC(=O)C1C(=O)NC(=O)CC1C(COCc1ccccc1)OCc1ccccc1` (stereo not given), for which the GI50 with MDA-MB-435 is 19.1 µM (inactive); in the experiment with TK-10, 35 µM (inactive); with DU-145, 39.7 µM (inactive); in the experiment on KM12, 17.8 µM (inactive); in the experiment on UACC-257, 20.7 µM (inactive); in the experiment with OVCAR-3, 21.8 µM (inactive). The GI50 in the experiment on MOLT-4 was 17.5 µM (inactive); in the experiment with LOX IMVI, 19.2 µM (inactive); with CCRF-CEM, 25.5 µM (inactive); with RPMI-8226 it was 20 µM (inactive); in the experiment on K562, 30.1 µM (inactive); in the experiment with BT-549, 32.1 µM (inactive). Also, the GI50 in the experiment with PC-3 is 12.4 µM (inactive); in the experiment with Hs-578T, 23.1 µM (inactive); in the experiment on SK-MEL-5 it was 17.3 µM (inactive).

Turning to `NS(=O)(=O)c1cc(S(N)(=O)=O)c(NC(=O)N(c2ccccc2)c2ccccc2)c(Cl)c1Cl`, the GI50 is 21.5 µM (inactive) in the experiment on MDA-MB-435; 32.7 µM (inactive) in the experiment with TK-10; 22.6 µM (inactive) with SK-MEL-2; 20.3 µM (inactive) in the experiment on KM12; 10.4 µM (inactive) in the experiment on UACC-257; 24 µM (inactive) in the experiment with SK-OV-3. In addition, the GI50 with COLO 205 was 22.9 µM (inactive); in the experiment on OVCAR-3 it was 18.5 µM (inactive); in the experiment with MOLT-4 it was 12.4 µM (inactive); in the experiment on LOX IMVI, 12.5 µM (inactive); with CCRF-CEM it was 1.98 µM (inactive); in the experiment on RPMI-8226 it was 15.3 µM (inactive). For the same compound, the GI50 in the experiment on K562 was 20.1 µM (inactive); in the experiment with BT-549, 15.9 µM (inactive); in the experiment with PC-3 it was 24 µM (inactive); with Hs-578T, 17.2 µM (inactive); with NCI/ADR-RES, 19 µM (inactive); with SK-MEL-5, 14.1 µM (inactive).

In the case of `c1csc(-c2csc(-c3ccsc3)c2)c1`, the GI50 with MDA-MB-435, in the experiment with TK-10, with SK-MEL-2, in the experiment with A498, in the experiment on KM12 and in the experiment on UACC-257 was > 100 µM (inactive) each time. Besides, the GI50 with SK-OV-3 was > 100 µM (inactive); in the experiment with COLO 205, > 100 µM (inactive); in the experiment on OVCAR-3 it was > 100 µM (inactive); with MOLT-4 it was 62.4 µM (inactive); in the experiment with LOX IMVI it was > 100 µM (inactive); in the experiment on CCRF-CEM, > 100 µM (inactive). Further, the GI50 with RPMI-8226, in the experiment on K562, in the experiment with BT-549, in the experiment with PC-3, in the experiment on Hs-578T and with NCI/ADR-RES was > 100 µM (inactive) throughout. In the experiment on SK-MEL-5, the GI50 was > 100 µM (inactive).

On to `C=C(CCC=C(C)C)C1CC=C(C)CC1` (stereo not given), for which the GI50 in the experiment on MDA-MB-435 is 18.2 µM (inactive); with TK-10, 38.5 µM (inactive); in the experiment on SK-MEL-2, 17.7 µM (inactive); in the experiment on A498 it was > 100 µM (inactive); with DU-145 it was 23.2 µM (inactive); with KM12, 19 µM (inactive). Further, the GI50 in the experiment on UACC-257 is > 100 µM (inactive); in the experiment on SK-OV-3, > 100 µM (inactive); in the experiment with COLO 205 it was 26.4 µM (inactive); with OVCAR-3 it was 29.5 µM (inactive); in the experiment with LOX IMVI it was 5.48 µM (inactive); with BT-549 it was 95.7 µM (inactive). For the same compound, the values for the GI50 in the experiment on Hs-578T, with NCI/ADR-RES and with SK-MEL-5 were 20.9 µM (inactive), 35.6 µM (inactive) and 16.6 µM (inactive), respectively.

Take `COc1ccccc1NCc1cccc2c(=O)c3ccc(Cl)cc3oc12`: the GI50 in the experiment on MDA-MB-435 is 65 µM (inactive); in the experiment on TK-10, > 100 µM (inactive); with SK-MEL-2, 49.1 µM (inactive); in the experiment on A498, > 100 µM (inactive); in the experiment with KM12, 40.1 µM (inactive); in the experiment on UACC-257, 60.5 µM (inactive). Further, the GI50 is > 100 µM (inactive) in the experiment with SK-OV-3; 56.9 µM (inactive) in the experiment on COLO 205; 35.8 µM (inactive) with OVCAR-3; > 100 µM (inactive) in the experiment with MOLT-4; > 100 µM (inactive) in the experiment on LOX IMVI; 48 µM (inactive) in the experiment with CCRF-CEM. Also, the GI50 in the experiment on RPMI-8226 is 39.3 µM (inactive); with K562 it was 47.1 µM (inactive); in the experiment with BT-549, > 100 µM (inactive); with PC-3, 58.7 µM (inactive); with NCI/ADR-RES, > 100 µM (inactive); in the experiment with SK-MEL-5 it was > 100 µM (inactive).

For the compound `CCc1c2c(nc3ccc(O)cc13)-c1cc3c(c(=O)n1C2)COC(=O)[C@]3(O)CC` [7-ETHYL-10-HYDROXYCAMPTOTHECIN], the GI50 with TK-10 is 0.0933 µM (active); in the experiment with SK-MEL-2 it was 0.0231 µM (active); with DU-145, < 0.001 µM (active); with KM12, 0.0212 µM (active); in the experiment with UACC-257, 0.013 µM (active); in the experiment with COLO 205, 0.0556 µM (active). Besides, the GI50 was 0.0116 µM (active) in the experiment on OVCAR-3; < 0.001 µM (active) in the experiment on MOLT-4; < 0.001 µM (active) with LOX IMVI; < 0.001 µM (active) with CCRF-CEM; 0.236 µM (active) with RPMI-8226; < 0.001 µM (active) with BT-549. Further, the GI50 is 0.00746 µM (active) in the experiment on PC-3 and 0.0791 µM (active) with Hs-578T.
